Experimental data reported in patent US20250277012A1 (Protagonist Therapeutics, Inc., priority 2021, published 2025).
Where two headings read alike, the source gives them in different places. Starred links: 1 amine or outer side, 2 acyl side, 3 side chain; linkers in the order of their positions; H or OH if unused. Positions of bridges follow the written chain, without caps; N, C: chain ends. Non-standard residues stand in square brackets, D forms with d. Residues, ends and D or L forms follow the SMILES beside them. Groups on a side chain read outwards from the residue. *: point of attachment. X1 = C[N+](C)(CCNC(=O)CCCCCCCCCCCCCCCCC(=O)O)CC(=O)*; Ala(quinolin-3-yl) = N[C@@H](Cc1cnc2ccccc2c1)C(=O)O; C18 diacid = O=C(O)CCCCCCCCCCCCCCCCC(=O)*; Dip = N[C@H](C(=O)O)C(c1ccccc1)c1ccccc1; γGlu = O=C(O)[C@H](CCC(=O)[*:2])N[*:1]; Ethylenediamine = C(CN[*:2])N[*:1]; Palmitoyl = CCCCCCCCCCCCCCCC(=O)*; NMeF = CN[C@@H](Cc1ccccc1)C(=O)O; β3hF = N[C@H](CC(=O)O)Cc1ccccc1; NMeK = CN[C@@H](CCCCN)C(=O)O; Tle = CC(C)(C)[C@H](N)C(=O)O; Nicotinoyl = O=C(c1cccnc1)*; Isovaleryl = CC(C)CC(=O)*; Dap = NC[C@H](N)C(=O)O; AEEA = NCCOCCOCC(=O)O; Ahx = NCCCCCC(=O)O

What was measured:
ferroportin [1] = biological target: T1, ferroportin (Homo sapiens, UniProt Q9NP59); experiment: FPN activity assay: ferroportin-GFP internalization/degradation in HEK293 cells; type: cell-based; design: expressed in transfected cells; conditions: read-out: FPN IC50
T1 sequence (Q9NP59 1-571): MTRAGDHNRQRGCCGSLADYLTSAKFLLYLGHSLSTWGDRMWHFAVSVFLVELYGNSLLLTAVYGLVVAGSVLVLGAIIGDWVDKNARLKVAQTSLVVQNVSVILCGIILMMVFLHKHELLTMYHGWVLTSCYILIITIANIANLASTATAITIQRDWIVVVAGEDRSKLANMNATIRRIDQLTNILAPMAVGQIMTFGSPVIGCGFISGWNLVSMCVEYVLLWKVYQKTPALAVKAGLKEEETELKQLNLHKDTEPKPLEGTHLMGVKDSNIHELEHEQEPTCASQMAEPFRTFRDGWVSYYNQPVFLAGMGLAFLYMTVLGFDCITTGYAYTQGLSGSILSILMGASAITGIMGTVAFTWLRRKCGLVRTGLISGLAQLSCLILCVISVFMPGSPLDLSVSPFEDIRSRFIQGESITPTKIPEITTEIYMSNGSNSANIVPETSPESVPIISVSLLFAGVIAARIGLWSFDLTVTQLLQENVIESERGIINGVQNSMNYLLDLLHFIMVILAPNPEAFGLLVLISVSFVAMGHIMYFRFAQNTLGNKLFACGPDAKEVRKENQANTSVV
Experimental: Following internalization, the ferroporin protein is degraded.
A retro inverse peptide is a peptide with a reversed sequence in all D amino acids. An example is that Hy-Glu-Thr-His-NH2 becomes Hy-DHis-DThr-DGlu-NH2. The EC50 of these reference compounds for ferroportin internalization/degradation was determined according to the FPN activity assay described above. These peptides served as control standards.

ferroportin [2] = biological target: T1, ferroportin; experiment: T47D cell-based ferroportin internalization assay in presence of mouse serum albumin (MSA); design: a human breast carcinoma adherent cell line which endogenously expresses ferroportin; host or cells: T47D
In short: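 Peptide potency for inducing ferroportin internalization was measured in T47D cells in the presence of serum albumin. Cells grown in RPMI with fetal bovine serum were seeded in 96-well plates at 80-100 k cells per well in 100 ul and rested overnight. Dilution series of test peptides were preincubated 30 min at room temperature, then added to the cells after the medium was aspirated.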

[3] = ferroportin-GFP HEK293 cells, at least 18 hours
[4] = T47D cells, 0.5% mouse serum albumin, 1 hr incubation
[5] = ferroportin-GFP internalization/degradation, HEK293 cells, Table 6E
[6] = T47D internalization assay in presence of mouse serum albumin (MSA), Table 6E
[7] = Table 6E, ferroportin-GFP internalization/degradation, at least 18 hours incubation
[8] = Table 6E, T47D internalization assay with MSA

Row | SMILES | DC50 (ferroportin [1]; [5]) [µM] | IC50 (ferroportin [2]; [6]) [µM] | further results
1 | COC(=O)CC[C@H](NC(=O)CC(C)C)C(=O)N[C@H](C(=O)N[C@@H](Cc1c[nH]cn1)C(=O)N[C@H](C(=O)N1CCC[C@H]1C(=O)N[C@H]1CSSC[C@@H](C(=O)N[C@@H](CCCCNC(=O)COCCOCCNC(=O)COCCOCCNC(=O)[C@H](CN)NC(=O)CCCCCCCCCCCCCCCCC(=O)O)C(=O)N[C@H](CC(=O)N[C@H](CCCCN)C(N)=O)Cc2ccccc2)NC1=O)C(c1ccccc1)c1ccccc1)[C@@H](C)O [Compd ID 42, Isovaleric Acid-[Glu_OMe]-T-H-[Dpa]-P-[Cys]-[Cys]-[Lys(1PEG2_1PEG2_Dap_C18_Diacid)]-[bhPhe]-[(D)Lys]-NH2] (Isovaleryl-E(OMe)TH[Dip]PCCK([AEEA-AEEA-Dap-C18 diacid])[β3hF][dK]-NH2; disulfide 6-7) |  |  | DC50 (ferroportin [1]; [3]): 0.01 to 0.1 µM; IC50 (ferroportin [2]; [4]): 0.01 to 0.1 µM
2 | CC(C)CC(=O)N[C@@H](CCC(=O)O)C(=O)N[C@H](C(=O)N[C@@H](Cc1cnc2ccccc2c1)C(=O)N[C@H](C(=O)N1CCC[C@H]1C(=O)N[C@H]1CSSC[C@@H](C(=O)N(C)[C@@H](CCCCNC(=O)COCCOCCNC(=O)COCCOCCNC(=O)[C@H](CN)NC(=O)CCCCCCCCCCCCCCCCC(=O)O)C(=O)N[C@H](CC(=O)N[C@H](CCCCN)C(N)=O)Cc2ccccc2)NC1=O)C(c1ccccc1)c1ccccc1)[C@@H](C)O [compound 296] (Isovaleryl-ET[Ala(quinolin-3-yl)][Dip]PCC[NMeK]([AEEA-AEEA-Dap-C18 diacid])[β3hF][dK]-NH2; disulfide 6-7) | > 0.5 | > 0.5 | 
3 | CC(C)CC(=O)N[C@@H](CCC(=O)O)C(=O)N[C@H](C(=O)N[C@@H](Cc1c[nH]cn1)C(=O)N[C@H](C(=O)N1CCC[C@H]1C(=O)N[C@H]1CSSC[C@@H](C(=O)N(C)[C@@H](CCCCNC(=O)COCCOCCNC(=O)COCCOCCNC(=O)[C@H](CN)NC(=O)CCCCCCCCCCCCCCCCC(=O)O)C(=O)N[C@H](CC(=O)N[C@H](C(N)=O)C(C)(C)C)Cc2ccccc2)NC1=O)C(c1ccccc1)c1ccccc1)[C@@H](C)O [compound 290] (Isovaleryl-ETH[Dip]PCC[NMeK]([AEEA-AEEA-Dap-C18 diacid])[β3hF][Tle]-NH2; disulfide 6-7) | 0.01 to 0.1 | 0.01 to 0.1 | 
4 | CCCCCCCCCCCCCCCC(=O)NCCCCCC(=O)NCCCC[C@H](NC(=O)[C@@H]1CSSC[C@H](NC(=O)[C@@H]2CCCN2C(=O)[C@@H](NC(=O)[C@H](Cc2c[nH]cn2)NC(=O)[C@@H](NC(=O)[C@H](CCC(=O)OC)NC(=O)CC(C)C)[C@@H](C)O)C(c2ccccc2)c2ccccc2)C(=O)N1)C(=O)N[C@H](CC(=O)N[C@H](CCCCN)C(N)=O)Cc1ccccc1 [Compd 40] (Isovaleryl-E(OMe)TH[Dip]PCCK([Ahx-Palmitoyl])[β3hF][dK]-NH2; disulfide 6-7) |  |  | DC50 (ferroportin [1]; [3]): 0.01 to 0.1 µM; IC50 (ferroportin [2]; [4]): 0.001 to 0.01 µM
5 | CC(C)CC(=O)N[C@@H](CCC(=O)O)C(=O)N[C@H](C(=O)N[C@@H](Cc1c[nH]cn1)C(=O)N[C@H](C(=O)N1CCC[C@H]1C(=O)N[C@H]1CSSC[C@@H](C(=O)N(C)[C@@H](CCCCNC(=O)COCCOCCNC(=O)COCCOCCNC(=O)[C@H](CN)NC(=O)CCCCCCCCCCCCCCCCC(=O)O)C(=O)N[C@H](CC(=O)N[C@H](CCCCN)C(=O)N(C)[C@@H](Cc2ccccc2)C(N)=O)Cc2ccccc2)NC1=O)C(c1ccccc1)c1ccccc1)[C@@H](C)O [compound 263] (Isovaleryl-ETH[Dip]PCC[NMeK]([AEEA-AEEA-Dap-C18 diacid])[β3hF][dK][NMeF]-NH2; disulfide 6-7) | 0.01 to 0.1 | 0.01 to 0.1 | 
6 | COC(=O)CC[C@H](NC(=O)CC(C)C)C(=O)N[C@H](C(=O)N[C@@H](Cc1c[nH]cn1)C(=O)N[C@H](C(=O)N1CCC[C@H]1C(=O)N[C@H]1CSSC[C@@H](C(=O)N(C)[C@@H](CCCCNC(=O)CCCCCNC(=O)C[N+](C)(C)CCNC(=O)CCCCCCCCCCCCCCCCC(=O)O)C(=O)N[C@H](C(=O)N[C@H](CCCCN)C(N)=O)C(c2ccccc2)c2ccccc2)NC1=O)C(c1ccccc1)c1ccccc1)[C@@H](C)OC [compound 147] (Isovaleryl-E(OMe)T(Me)H[Dip]PCC[NMeK]([Ahx-X1])[Dip][dK]-NH2; disulfide 6-7) |  |  | DC50 (ferroportin [1]; [7]): 0.01 to 0.1 µM; IC50 (ferroportin [2]; [8]): 0.1 to 0.5 µM
7 | C[C@@H](O)[C@H](NC(=O)[C@H](CCC(=O)O)NC(=O)c1cccnc1)C(=O)N[C@@H](Cc1c[nH]cn1)C(=O)N[C@H](C(=O)N1CCC[C@H]1C(=O)N[C@H]1CSSC[C@@H](C(=O)N(C)[C@@H](CCCCNC(=O)COCCOCCNC(=O)COCCOCCNC(=O)[C@H](CN)NC(=O)CCCCCCCCCCCCCCCCC(=O)O)C(=O)N[C@H](CC(=O)N[C@H](CCCCN)C(N)=O)Cc2ccccc2)NC1=O)C(c1ccccc1)c1ccccc1 [compound 299] (Nicotinoyl-ETH[Dip]PCC[NMeK]([AEEA-AEEA-Dap-C18 diacid])[β3hF][dK]-NH2; disulfide 6-7) | 0.01 to 0.1 | 0.01 to 0.1 | 
8 | CC(C)CC(=O)N[C@@H](CCC(=O)O)C(=O)N[C@H](C(=O)N[C@@H](Cc1c[nH]cn1)C(=O)N[C@H](C(=O)N1CCC[C@H]1C(=O)N[C@H]1CSSC[C@@H](C(=O)N(C)[C@@H](CCCCNC(=O)COCCOCCNC(=O)COCCOCCNC(=O)[C@H](CN)NC(=O)CCCCCCCCCCCCCCCCC(=O)O)C(=O)N[C@H](C(=O)N[C@H](CCCCN)C(N)=O)C(c2ccccc2)c2ccccc2)NC1=O)C(c1ccccc1)c1ccccc1)[C@@H](C)O [compound 293] (Isovaleryl-ETH[Dip]PCC[NMeK]([AEEA-AEEA-Dap-C18 diacid])[Dip][dK]-NH2; disulfide 6-7) | 0.001 to 0.01 | 0.01 to 0.1 | 
9 | CCCCCCCCCCCCCCCC(=O)NCCCCCC(=O)NCCCC[C@H]1C(=O)N[C@@H](C(c2ccccc2)c2ccccc2)C(=O)NCCNC(=O)CC[C@H](NC(=O)CC(C)C)C(=O)N[C@@H]([C@@H](C)O)C(=O)N[C@@H](Cc2c[nH]cn2)C(=O)N[C@@H](C(c2ccccc2)c2ccccc2)C(=O)N2CCC[C@H]2C(=O)N[C@H]2CSSC[C@H](NC2=O)C(=O)N1C [compound 161] (Isovaleryl-ETH[Dip]PCC[NMeK]([Ahx-Palmitoyl])[Dip]; linker 1-C via Ethylenediamine; disulfide 6-7) |  |  | DC50 (ferroportin [1]; [7]): 0.001 to 0.01 µM; IC50 (ferroportin [2]; [8]): 0.01 to 0.1 µM
10 | COC(=O)CC[C@H](NC(=O)CC(C)C)C(=O)N[C@H](C(=O)N[C@@H](Cc1c[nH]cn1)C(=O)N[C@H](C(=O)N1CCC[C@H]1C(=O)N[C@H]1CSSC[C@@H](C(=O)N(C)[C@@H](CCCCNC(=O)COCCOCCNC(=O)COCCOCCNC(=O)[C@H](CN)NC(=O)CCCCCCCCCCCCCCCCC(=O)O)C(=O)N[C@H](CC(=O)N[C@H](CCCCN)C(N)=O)Cc2ccccc2)NC1=O)C(c1ccccc1)c1ccccc1)[C@@H](C)O [compound 305] (Isovaleryl-E(OMe)TH[Dip]PCC[NMeK]([AEEA-AEEA-Dap-C18 diacid])[β3hF][dK]-NH2; disulfide 6-7) | 0.01 to 0.1 | 0.01 to 0.1 | 
11 | CC[C@H](C)[C@H](NC(=O)[C@@H]1CSSC[C@H](NC(=O)[C@@H](NC(=O)[C@H](Cc2c[nH]cn2)NC(=O)[C@@H](NC(=O)[C@H](CCC(=O)O)NC(=O)CC(C)C)[C@@H](C)O)C(c2ccccc2)c2ccccc2)C(=O)N1)C(=O)N[C@@H](CCCCNC(=O)COCCOCCNC(=O)COCCOCCNC(=O)CC[C@H](NC(=O)CCCCCCCCCCCCCCCCC(=O)O)C(=O)O)C(=O)N[C@H](CC(=O)N[C@H](CCCCN)C(N)=O)Cc1ccccc1 [Compd 30] (Isovaleryl-ETH[Dip]CCIK([AEEA-AEEA-γGlu-C18 diacid])[β3hF][dK]-NH2; disulfide 5-6) |  |  | DC50 (ferroportin [1]; [3]): 0.01 to 0.1 µM; IC50 (ferroportin [2]; [4]): 0.01 to 0.1 µM
12 | CCCCCCCCCCCCCCCC(=O)NCCCCCC(=O)NCCCC[C@@H](C(=O)N[C@H](CC(=O)N[C@H](CCCCN)C(N)=O)Cc1ccccc1)N(C)C(=O)[C@@H]1CSSC[C@H](NC(=O)[C@@H]2CCCN2C(=O)[C@@H](NC(=O)[C@H](Cc2cnc[nH]2)NC(=O)[C@@H](NC(=O)[C@H](CCC(=O)OC)NC(=O)CC(C)C)[C@@H](C)O)C(c2ccccc2)c2ccccc2)C(=O)N1 [compound 307] (Isovaleryl-E(OMe)TH[Dip]PCC[NMeK]([Ahx-Palmitoyl])[β3hF][dK]-NH2; disulfide 6-7) | 0.01 to 0.1 | 0.001 to 0.01 | 
